Assay results taken from patent US9273057B2 (Bristol-Myers Squibb Company, priority 2012, dated 2016).

biological target: CK2A1 (CK2α/β) (Homo sapiens, UniProt P68400); assay: CK2 kinase assay, CK2A1 (CK2α/β); format: biochemical; conditions: Table A; read-out: CK2A1 (CK2α/β) (IC50)
Sequence (P68400 whole entry, species assumed): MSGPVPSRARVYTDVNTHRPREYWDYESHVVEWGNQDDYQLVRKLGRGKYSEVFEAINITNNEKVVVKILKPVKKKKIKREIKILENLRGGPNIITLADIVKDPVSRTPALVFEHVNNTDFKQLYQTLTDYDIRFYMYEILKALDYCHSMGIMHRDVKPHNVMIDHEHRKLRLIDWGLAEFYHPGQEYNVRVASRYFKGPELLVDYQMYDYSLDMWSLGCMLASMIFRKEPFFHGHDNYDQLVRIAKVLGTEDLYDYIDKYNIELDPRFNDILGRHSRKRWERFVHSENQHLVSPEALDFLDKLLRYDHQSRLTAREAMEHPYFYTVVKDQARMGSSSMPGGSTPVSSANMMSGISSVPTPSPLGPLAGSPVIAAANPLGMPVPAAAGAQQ
Sequence (P67870 whole entry partner, species assumed): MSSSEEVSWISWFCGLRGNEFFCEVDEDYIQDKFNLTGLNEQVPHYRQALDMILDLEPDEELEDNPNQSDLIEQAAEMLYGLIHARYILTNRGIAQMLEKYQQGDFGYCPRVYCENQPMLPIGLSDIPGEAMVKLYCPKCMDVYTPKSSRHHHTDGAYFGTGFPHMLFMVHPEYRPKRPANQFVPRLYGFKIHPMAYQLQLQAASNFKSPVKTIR

IC50 [nM] | SMILES
1.98 | CN1CCC(N2CCN(c3cc(C#N)cc(Nc4nc(NC5CC5)c5ncc(C#N)n5n4)c3Cl)CC2)CC1 [Example 15, 2-((2-chloro-5-cyano-3-(4-(1-methyl-4-piperidinyl)-1-piperazinyl)phenyl)amino)-4-(cyclopropylamino)imidazo [2,1-f][1,2,4]triazine-7-carbonitrile]
0.78 | CC1(N2CCC(Oc3cc(C#N)cc(Nc4nc(NC5CC5)c5ncc(C#N)n5n4)c3Cl)CC2)COC1 [Example 427, 2-((2-chloro-5-cyano-3-((1-(3-methyloxetan-3-yl)piperidin-4-yl)oxy)phenyl)amino)-4-(cyclopropylamino)imidazo[2,1-f][1,2,4]triazine-7-carbonitrile]
2.68 | Cc1cc(CNC2CCN(c3cc(C#N)cc(Nc4nc(NC5CC5)c5ncc(C#N)n5n4)c3Cl)CC2)on1 [Example 140, 2-(2-chloro-5-cyano-3-(4-((3-methylisoxazol-5-yl)methylamino)piperidin-1-yl)phenylamino)-4-(cyclopropylamino)imidazo [1,2-f][1,2,4]triazine-7-carbonitrile]
2.03 | CCNc1nc(Nc2cc(C#N)cc(N3CC[C@@H](NC(=O)OC)[C@H](OC(=O)[C@@H](N)C(C)C)C3)c2Cl)nn2c(C#N)cnc12 [Example 346, (S)-(3R,4R)-1-(2-chloro-5-cyano-3-((7-cyano-4-(ethylamino)imidazo[2,1-f][1,2,4]triazin-2-yl)amino)phenyl)-4-((methoxycarbonyl)amino)piperidin-3-yl 2-amino-3-methylbutanoate]
2.94 | CC(C)(O)CNCC1CN(c2cc(C#N)cc(Nc3nc(NC4CC4)c4ncc(C#N)n4n3)c2Cl)CCO1 (stereo not shown) [Example 709, 2-{[2-chloro-5-cyano-3-(2-{[(2-hydroxy-2-methylpropyl)amino]methyl}morpholin-4-yl)phenyl]amino}-4-(cyclopropylamino)imidazo[2,1-f][1,2,4]triazine-7-carbonitrile]
0.64 | N#Cc1cc(Nc2nc(NC3CC3)c3ncc(C#N)n3n2)c(Cl)c(N2CC[C@@H](NC(=O)CN3CCOCC3)[C@H](O)C2)c1 (racemic) [Example 183, (+/−)-N-((3R,4R)-1-(2-chloro-5-cyano-3-((7-cyano-4-(cyclopropylamino)imidazo[2,1-f][1,2,4]triazin-2-yl)amino)phenyl)-3-hydroxypiperidin-4-yl)-2-morpholinoacetamide]
18.1 | COC(=O)NC1CCN(c2cc(C#N)cc(Nc3nc(NC4CC4)c4ncc(C#N)n4n3)c2Cl)C[C@H]1N(C)CC(C)(C)O (stereo in doubt) [Example 767, methyl N-[(3R,4S)-1-(2-chloro-5-cyano-3-{[7-cyano-4-(cyclopropylamino)imidazo [2,1-f][1,2,4]triazin-2-yl]amino}phenyl)-3-[(2-hydroxy-2-methylpropyl)(methyl)amino]piperidin-4-yl] carbamate]
0.4 | C[C@@H]1CC(CN2CCN(c3cc(C#N)cc(Nc4nc(NC5CC5)c5ncc(C#N)n5n4)c3Cl)CC2)O1 (stereo partly drawn) [Example 528, 2-((2-chloro-5-cyano-3-(4-(((4R)-4-methyloxetan-2-yl)methyl)piperazin-1-yl)phenyl)amino)-4-(cyclopropylamino)imidazo[2,1-f][1,2,4]triazine-7-carbonitrile]
0.75 | COC(=O)NCC1CN(c2cc(C#N)cc(Nc3nc(NC4CC4)c4ncc(C#N)n4n3)c2Cl)CCO1 (stereo not shown) [Example 710, methyl N-{[4-(2-chloro-5-cyano-3-{[7-cyano-4-(cyclopropylamino)imidazo[2,1-f][1,2,4]triazin-2-yl]amino}phenyl)morpholin-2-yl]methyl}carbamate]
2.47 | CN(CCNC1COC1)c1cc(C#N)cc(Nc2nc(NC3CC3)c3ncc(C#N)n3n2)c1Cl [Example 51, 2-((2-chloro-5-cyano-3-(methyl(2-(3-oxetanylamino)ethyl)amino)phenyl)amino)-4-(cyclopropylamino)imidazo [2,1-f][1,2,4]triazine-7-carbonitrile]
